# pIC50: −log10 of the molar value. Like-named read-outs stand apart in the source and are kept apart here. *1 amine or outer side, *2 acyl side, *3 side chain or, on linkers, in order; H or OH if unused. Where a SMILES comes first, the peptide text is derived from it. Where no end group is shown, it is not given here. [ ]: non-standard residue; d: D form. The star is where a group is joined. Acca(2-Et,1R,2R) = CC[C@@H]1C[C@]1(N)C(=O)O; CH2(1-naphthyl) = c1ccc2c(C*)cccc2c1; mXylylene = c1cc(C[*:1])cc(C[*:2])c1; oXylylene = c1ccc(C[*:2])c(C[*:1])c1; Hyp = O=C(O)[C@@H]1C[C@@H](O)CN1; Chg = N[C@H](C(=O)O)C1CCCCC1; Tle = CC(C)(C)[C@H](N)C(=O)O; Pip = O=C(O)[C@@H]1CCCCN1; Nva = CCC[C@H](N)C(=O)O; Abu = CC[C@H](N)C(=O)O; Ac3c = NC1(C(=O)O)CC1; Meb = Cc1ccc(C*)cc1
# Tests used:
# [1] = biological target: T1, recombinant HCV NS3 protease type 1b (Hepatitis C virus genotype 1b, UniProt P26663); assay: Recombinant HCV NS3 protease radiometric assay; assay type: biochemical, HCV genotype 1b
# T1 construct: recombinant HCV NS3 protease (amino acid 1027 to 1206) was cloned in the pET11d bacterial expression vector; made in house; host or cells: E. coli BL21(DE3)pLysS
# T1 sequence (P26663 1027-1206): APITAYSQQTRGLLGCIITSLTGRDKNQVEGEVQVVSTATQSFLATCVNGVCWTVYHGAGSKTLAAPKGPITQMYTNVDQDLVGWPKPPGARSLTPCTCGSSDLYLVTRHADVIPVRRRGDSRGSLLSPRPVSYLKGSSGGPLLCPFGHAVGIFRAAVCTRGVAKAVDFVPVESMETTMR
# Source text: Cloning, Expression and Purification of the Recombinant HCV NS3 Protease type 1b.
# Serum from an HCV-infected patient was obtained through an external collaboration (Bernard Willems MD, Hôpital St-Luc. Montréal. Canada and Dr. Donald Murphy, Laboratoire de Santé Publique du Québec, Ste-Anne de Bellevue, Canada). An engineered full-length cDNA template of the HCV genome was constructed from DNA fragments obtained by reverse transcription-PCR (RT-PCR) of serum RNA and using specific primers selected on the basis of homology between other genotype 1b strains. From the determination of the entire genomic sequence, a genotype 1b was assigned to the HCV isolate according to the classification of Simmonds et al. (J. Clin. Microbiol., (1993), 31, p.1493-1503). […] A DNA fragment encoding the polyprotein precursor (NS3/NS4A/NS4B/NS5A/NS5B) was generated by PCR and introduced into eukaryotic expression vectors. […] The mature NS3 protein was not observed with expression of a polyprotein precursor containing the mutation S1165A, which inactivates the NS3 protease, confirming the functionality of the HCV NS3 protease.
# The DNA fragment encoding the recombinant HCV NS3 protease (amino acid 1027 to 1206) was cloned in the pET11d bacterial expression vector. The NS3 protease expression in E. coli BL21(DE3)pLysS was induced by incubation with 1 mM IPTG for 3 h at 22° C. A typical fermentation (18 L) yielded approximately 100 g of wet cell paste. The cells were resuspended in lysis buffer (3.0 mL/g) consisting of 25 mM sodium phosphate, pH 7.5, 10% glycerol (v/v), 1 mM EDTA, 0.01% NP-40 and stored at −80° C. Cells were thawed and homogenized following the addition of 5 mM DTT. Magnesium chloride and DNase were then added to the homogenate at final concentrations of 20 mM and 20 μg/mL respectively. After a 25 min incubation at 4° C., the homogenate was sonicated and centrifuged at 15000×g for 30 min at 4° C. The pH of the supernatant was then adjusted to 6.5 using a 1 M sodium phosphate solution.
# An additional gel filtration chromatography step was added to the 2 step purification procedure described in WO 95/22985 (incorporated herein by reference). Briefly, the supernatant from the bacterial extract was loaded on a SP HiTrap column (Pharmacia) previously equilibrated at a flow rate of 2 mL/min in buffer A (50 mM sodium phosphate. pH 6.5, […], 1 mM EDTA, 5 mM DTT, 0.01% NP-40). The column was then washed with buffer A containing 0.15 M NaCl and the protease eluted by applying 10 column volumes of a linear 0.15 to 0.3 M NaCl gradient. NS3 protease-containing fractions were pooled and diluted to a final NaCl concentration of 0.1 M. The enzyme was further purified on a HiTrap Heparin column (Pharmacia) equilibrated in buffer B (25 mM sodium phosphate, pH 7.5, 10% glycerol, 5 mM DTT, 0.01% NP-40). The sample was loaded at a flow rate of 3 mL/min. The column was then washed with buffer B containing 0.15 M NaCl at a flow rate of 1.5 mL/min. Two step washes were performed in the presence of buffer B containing 0.3 or 1 M NaCl. The protease was recovered in the 0.3M NaCl wash, diluted 3-fold with buffer B, reapplied on the HiTrap Heparin column and eluted with buffer B containing 0.4 M NaCl. Finally, the NS3 protease-containing fractions were applied on a Superdex 75 HiLoad 16/60 column (Pharmacia) equilibrated in buffer B containing 0.3 M NaCl. The purity of the HCV NS3 protease obtained from the pooled tractions was judged to be greater than 95% by SDS-PAGE followed by densitometry analysis.
# The enzyme was stored at −80° C. and was thawed on ice and diluted just prior to use.
# Recombinant HCV NS3 Protease Radiometric Assay
# The substrate used for the HCV NS3 protease radiometric assay, DDIVPC-SMSYTW [SEQ. ID NO. 2], is cleaved between the cysteine and the serine residues by the enzyme. The sequence DDIVPC-SMSYTW [SEQ. ID NO. 2] corresponds to the NS5A/NS5B natural cleavage site in which the cysteine residue in P2 has been substituted for a proline. […]
# [2] = biological target: T2, HCV NS3 protease type 1b/NS4A cofactor peptide (Hepatitis C virus genotype 1b, UniProt P26663); assay: Recombinant HCV NS3 protease/NS4A cofactor peptide radiometric assay; assay type: biochemical, HCV genotype 1b; details: for pIC50: read-out: IC50
# T2 construct: recombinant HCV NS3 protease (amino acid 1027 to 1206) was cloned in the pET11d bacterial expression vector; made in house; host or cells: E. coli BL21(DE3)pLysS
# T2 sequence (P26663 1027-1206, other chains not shown): as the sequence (P26663 1027-1206) above
# Procedure: Recombinant HCV NS3 Protease/NS4A Cofactor Peptide Radiometric Assay.
# The enzyme was stored at −80° C., thawed on ice and diluted just prior to use in the assay buffer containing the NS4A cofactor peptide.
# The substrate used for the NS3 protease/NS4A cofactor peptide radiometric assay, DDIVPC-SMSYTW [SEQ. ID NO. 2], is cleaved between the cysteine and the serine residues by the enzyme. The sequence DDIVPC-SMSYTW [SEQ. ID NO. 2] corresponds to the NS5A/NS5B natural cleavage site in which the cysteine residue in P2 has been substituted for a proline. The peptide substrate DDIVPC-SMSYTW [SEQ. ID NO. […] ID NO. […] [SEQ. ID NO. 5] (molar ratio enzyme: cofactor 1:100) in the absence or presence of inhibitors. The separation of substrate from products is performed by adding avidin-coated agarose beads to the assay mixture followed by filtration. […] ID NO. 4] product found in the filtrate allows for the calculation of the percentage of substrate conversion and of the percentage of inhibition.
# Tris and Tris-HCl (UltraPure) were obtained from Gibco-BRL. Glycerol (UltraPure), MES and BSA were purchased from Sigma. TCEP was obtained from Pierce, DMSO from Aldrich and NaOH from Anachemia.
# Assay buffer: 50 mM Tris HCl, pH 7.5, 30% (w/v) glycerol, 1 mg/mL BSA, 1 mM TCEP (TCEP added just prior to use from a 1 M stock solution in water).
# Substrate: […] [SEQ. ID NO.
# ID NO. 3] (˜1 nM final concentration).
# The assay was performed in a 96-well polypropylene plate from Costar. Each well contained:
# 20 μL substrate/tracer in assay buffer;
# 10 μL±inhibitor in 20% DMSO/assay buffer;
# 10 μL NS3 protease 1b/NS4 cofactor peptide (molar ratio 1:100).
# Blank (no inhibitor and no enzyme) and control (no inhibitor) were also prepared on the same assay plate.
# The enzymatic reaction was initiated by the addition of the enzyme/NS4A peptide solution and the assay mixture was incubated for 40 min at 23° C. under gentle agitation. Ten (10) μL of 0.5N NaOH were added and 10 μL 1 M MES, pH 5.8 were added to quench the enzymatic reaction.
# Twenty (20) μL of avidin-coated agarose beads (purchased from Pierce) were added in a Millipore MADP N65 filtration plate. The quenched assay mixture was transferred to the filtration plate, and incubated for 60 min at 23° C. under gentle agitation.
# The plates were filtered using a Millipore MultiScreen Vacuum Manifold Filtration apparatus, and 40 μL of the filtrate was transferred in an opaque 96-well plate containing 60 μL of scintillation fluid per well.
# The % inhibition was calculated with the following equation:
# 100-[(countsinh-countsblank)/(countsctl-countsblank)×100]
# human leukocyte elastase = biological target: T3, human leukocyte elastase (Homo sapiens, UniProt P08246); assay: Specificity assay: human leukocyte elastase; assay type: biochemical
# T3 sequence (P08246 30-267): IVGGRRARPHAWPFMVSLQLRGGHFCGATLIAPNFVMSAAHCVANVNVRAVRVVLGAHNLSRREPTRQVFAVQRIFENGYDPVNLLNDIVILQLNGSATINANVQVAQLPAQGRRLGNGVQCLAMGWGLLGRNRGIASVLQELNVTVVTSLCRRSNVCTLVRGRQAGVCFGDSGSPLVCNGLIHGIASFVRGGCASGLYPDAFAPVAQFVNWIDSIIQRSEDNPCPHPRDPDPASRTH
# Procedure: The final conditions for each assay were as follows:
# [100 μM Succ-AAPF-pNA [SEQ. ID NO.
# The percentage of inhibition was calculated using the formula:
# [1-((UVinn-UVblank)/(UVctl-UVblank))]×100
Compound,pIC50 [1],other results
Ac-DVIVPC [compound 107],4.07,–
Ac-DEIVPC [compound 106],4.80,–
"CC[C@@H]1C[C@]1(NC(=O)[C@@H]1C[C@@H](OCc2cccc3ccccc23)CN1C(=O)[C@@H](NC(=O)[C@@H](NC(=O)[C@H](NC(=O)[C@H](CC(=O)O)NC(C)=O)C(C)C)C1CCCCC1)C(C)C)C(=O)O [compound 521] (Ac-D[dV][Chg]V[Hyp](CH2(1-naphthyl))[Acca(2-Et,1R,2R)]-OH)",–,"pIC50 ([2]; Table 5, first line of the cell, NS3 protease/NS4A cofactor peptide radiometric assay (Example 38)): 7.62; pIC50 (human leukocyte elastase): < 3.52"
CCC[C@H](NC(=O)[C@@H]1C[C@@H](OCc2ccc(C)cc2)CN1C(=O)[C@@H](NC(=O)[C@@H](NC(=O)[C@H](CC(=O)O)NC(=O)[C@H](CC(=O)O)NC(C)=O)[C@@H](C)CC)C(C)C)C(=O)O [compound 206] (Ac-DDIV[Hyp](Meb)[Nva]-OH),5.19,–
CC(=O)N[C@H](C(=O)N[C@H](C(=O)N1C[C@H](OCc2cccc3ccccc23)C[C@H]1C(=O)NC1(C(=O)O)CC1)C(C)C)C1CCCCC1 [compound 227] (Ac-[Chg]V[Hyp](CH2(1-naphthyl))[Ac3c]-OH),–,"pIC50 ([2]; Table 2, unmarked values: NS3 protease/NS4A cofactor peptide radiometric assay): 5.52; pIC50 (human leukocyte elastase): < 3.22"
CC[C@@H]1C[C@]1(NC(=O)[C@@H]1C[C@@H](OCc2cccc3ccccc23)CN1C(=O)[C@@H](NC(=O)[C@@H](NC(C)=O)C1CCCCC1)C(C)C)C(=O)O [compound 513],–,"fold more potent than the corresponding 1S,2S isomer ([2]; 1R,2R isomer (513) versus 1S,2S isomer (514)): 25 fold; IC50 ([2]; IC50 (μM), Table 5, first line of the cell, NS3 protease/NS4A cofactor peptide radiometric assay (Example 38)): 1.66 µM; pIC50 ([2]; text b180, values of Table 5, 1R,2R versus 1S,2S isomer at P1): 5.80; pIC50 (human leukocyte elastase): < 3.52"
CC[C@H](NC(=O)[C@@H](NC(=O)[C@@H](NC(=O)[C@H](CC(=O)O)NC(=O)[C@H](CC(=O)O)NC(C)=O)[C@@H](C)CC)C(C)C)C(=O)N[C@@H](CS)C(=O)O [compound 115] (Ac-DDIV[Abu]C-OH; C-terminus assumed),4.24,–
Ac-DDIVVC [compound 118],3.88,–
Ac-DDIVFC [compound 117],4.60,–
CCC[C@H](NC(=O)[C@@H]1CCCCN1C(=O)[C@@H](NC(=O)[C@@H](NC(=O)[C@H](CC(=O)O)NC(=O)[C@H](CC(=O)O)NC(C)=O)[C@@H](C)CC)C(C)C)C(=O)O [compound 127] (Ac-DDIV[Pip][Nva]-OH; C-terminus assumed),3.22,–
Ac-DDLVPC [compound 112],4.04,–
Ac-DDIIPC [compound 113],4.25,–
CCC[C@H](NC(=O)[C@@H]1C[C@@H](OCc2ccccc2C)CN1C(=O)[C@@H](NC(=O)[C@@H](NC(=O)[C@H](CC(=O)O)NC(=O)[C@H](CC(=O)O)NC(C)=O)[C@@H](C)CC)C(C)C)C(=O)O [compound 204] (Ac-DDIV[Hyp](oXylylene)[Nva]-OH; C-terminus assumed),5.03,–
CCC[C@H](NC(=O)[C@@H]1C[C@@H](OCc2cccc(C)c2)CN1C(=O)[C@@H](NC(=O)[C@@H](NC(=O)[C@H](CC(=O)O)NC(=O)[C@H](CC(=O)O)NC(C)=O)[C@@H](C)CC)C(C)C)C(=O)O [compound 205] (Ac-DDIV[Hyp](mXylylene)[Nva]-OH; C-terminus assumed),5.17,–
Ac-DDVVPC [compound 109],4.10,–
CCC[C@H](NC(=O)[C@@H]1CCCN1C(=O)[C@@H](NC(=O)[C@@H](NC(=O)[C@@H](NC(=O)[C@H](CC(=O)O)NC(C)=O)C(C)(C)C)[C@@H](C)CC)C(C)C)C(=O)O [compound 129] (Ac-D[Tle]IVP[Nva]-OH; C-terminus assumed),3.57,–
Ac-DDIVAC [compound 120],4.12,–
Ac-DDIVLC [compound 116],4.80,–
CC[C@H](C)[C@H](NC(=O)[C@H](CC(=O)O)NC(=O)[C@H](CC(=O)O)NC(C)=O)C(=O)N[C@H](C(=O)N1CCC[C@H]1C(=O)N[C@@H](CS)C(=O)O)C1CCCCC1 [compound 114] (Ac-DDI[Chg]PC-OH; C-terminus assumed),4.30,–
CC(=O)N[C@@H](CC(=O)O)C(=O)N[C@@H](CC(=O)O)C(=O)N[C@H](C(=O)N[C@H](C(=O)N1CCC[C@H]1C(=O)N[C@@H](CS)C(=O)O)C(C)C)C1CCCCC1 [compound 110] (Ac-DD[Chg]VPC-OH; C-terminus assumed),4.62,–
